Assay results published in US20200079793A1, “COMPOUNDS AND METHODS FOR MODULATING ADENOSINE A2B RECEPTOR AND ADENOSINE A2A RECEPTOR” (CORVUS PHARMACEUTICALS, INC., priority 2018, published 2020).

Assays:
[1] = target: T1, A1R (Homo sapiens, UniProt P30542); experiment: Activity assay of adenosine receptor modulators, A1R cAMP (Table 1); type: cell-based
T1 sequence (P30542 1-326): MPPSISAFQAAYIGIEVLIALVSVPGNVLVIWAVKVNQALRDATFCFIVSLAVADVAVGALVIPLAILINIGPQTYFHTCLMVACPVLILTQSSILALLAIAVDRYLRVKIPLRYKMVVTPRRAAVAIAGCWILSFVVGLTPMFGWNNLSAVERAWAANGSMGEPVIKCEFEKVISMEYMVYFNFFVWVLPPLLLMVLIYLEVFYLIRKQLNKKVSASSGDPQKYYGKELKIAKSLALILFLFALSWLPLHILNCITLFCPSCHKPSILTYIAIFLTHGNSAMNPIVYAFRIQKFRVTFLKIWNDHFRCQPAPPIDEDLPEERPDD
Procedure: (§1) Compounds (e.g., adenosine receptor modulators) were tested for its biological activity. The assay results in Table 1 indicate (+ means >1 μM; ++ means 100 nM to 1 μM; +++ means <100 nM).

[2] = target: T2, A3R (Homo sapiens, UniProt P0DMS8); experiment: Activity assay of adenosine receptor modulators, A3R cAMP (Table 1); type: cell-based
T2 sequence (P0DMS8 1-318): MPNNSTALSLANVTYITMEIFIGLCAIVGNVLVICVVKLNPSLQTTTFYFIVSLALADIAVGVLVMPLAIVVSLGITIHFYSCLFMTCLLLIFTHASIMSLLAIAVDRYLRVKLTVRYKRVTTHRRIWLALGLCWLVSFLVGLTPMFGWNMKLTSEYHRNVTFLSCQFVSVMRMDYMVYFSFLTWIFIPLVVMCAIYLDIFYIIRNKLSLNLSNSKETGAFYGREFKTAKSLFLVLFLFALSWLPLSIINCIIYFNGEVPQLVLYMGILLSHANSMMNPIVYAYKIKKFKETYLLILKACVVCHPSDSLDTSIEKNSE
Procedure: as §1

[3] = target: Adenosine A2A Receptor (Homo sapiens, UniProt P29274); experiment: Activity assay of adenosine receptor modulators, Adenosine A2A Receptor (Table 1); type: biochemical; conditions: cAMP; read-out: A2AR cAMP IC50
Procedure: as §1

[4] = target: T3, Adenosine A2B Receptor (Homo sapiens, UniProt P29275); experiment: Activity assay of adenosine receptor modulators, Adenosine A2B Receptor (Table 1); type: biochemical; conditions: cAMP; read-out: A2BR cAMP IC50
T3 sequence (P29275 1-332): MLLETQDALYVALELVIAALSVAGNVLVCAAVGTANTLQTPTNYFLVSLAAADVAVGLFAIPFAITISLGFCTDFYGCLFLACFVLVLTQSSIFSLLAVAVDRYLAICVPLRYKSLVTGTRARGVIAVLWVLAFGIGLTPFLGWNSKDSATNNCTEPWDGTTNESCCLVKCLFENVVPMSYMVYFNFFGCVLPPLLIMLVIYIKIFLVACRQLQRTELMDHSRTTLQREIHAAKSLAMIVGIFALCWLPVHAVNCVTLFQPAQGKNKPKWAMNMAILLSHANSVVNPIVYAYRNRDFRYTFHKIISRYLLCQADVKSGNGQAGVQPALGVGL
Procedure: as §1

Adenosine A2A Receptor, sequence (P29274 whole entry): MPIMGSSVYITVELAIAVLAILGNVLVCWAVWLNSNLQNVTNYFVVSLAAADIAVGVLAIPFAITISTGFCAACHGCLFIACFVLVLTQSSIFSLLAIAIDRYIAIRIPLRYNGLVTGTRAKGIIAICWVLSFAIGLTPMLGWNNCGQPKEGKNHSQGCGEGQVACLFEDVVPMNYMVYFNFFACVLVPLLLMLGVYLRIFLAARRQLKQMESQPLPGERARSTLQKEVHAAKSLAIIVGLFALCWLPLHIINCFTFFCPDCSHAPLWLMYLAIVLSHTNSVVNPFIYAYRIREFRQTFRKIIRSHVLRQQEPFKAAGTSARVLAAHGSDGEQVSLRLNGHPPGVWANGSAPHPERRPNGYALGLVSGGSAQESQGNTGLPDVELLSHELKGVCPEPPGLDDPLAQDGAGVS

Row | IC50 [1] | IC50 [2] | IC50 [3] | IC50 [4] | Structure (SMILES)
1 | > 1000 nM | 100 to 1000 nM | 100 to 1000 nM | < 100 nM | Cc1nc2nc(N[C@@H](C)c3cncc(F)c3)nc(C(=O)N3CCCC3)c2s1 [Example 1, (S)-(5-((1-(5-Fluoropyridin-3-yl)ethyl)amino)-2-methylthiazolo[4,5-d]pyrimidin-7-yl)(pyrrolidin-1-yl)methanone]
2 | > 1000 nM | 100 to 1000 nM | 100 to 1000 nM | < 100 nM | Cc1nc2nc(N[C@@H](C)c3cncc(F)c3)nc(C(=O)N3CCC3)c2s1 [Example 2, (S)-Azetidin-1-yl(5-((1-(5-fluoropyridin-3-yl)ethyl)amino)-2-methylthiazolo[4,5-d]pyrimidin-7-yl)methanone]
3 | 100 to 1000 nM | 100 to 1000 nM | 100 to 1000 nM | < 100 nM | Cc1nc2nc(N[C@@H](C)c3cncc(F)c3)nc(C(=O)NC[C@@H](C)O)c2s1 [Example 3, 5-(((S)-1-(5-Fluoropyridin-3-yl)ethyl)amino)-N—((R)-2-hydroxypropyl)-2-methylthiazolo[4,5-d]pyrimidine-7-carboxamide]
4 | > 1000 nM | > 1000 nM | > 1000 nM | < 100 nM | Cc1nc2nc(N[C@@H](C)c3cncc(F)c3)nc(C(=O)N3CC[C@H](O)C3)c2s1 [Example 4, (5-(((S)-1-(5-Fluoropyridin-3-yl)ethyl)amino)-2-methylthiazolo[4,5-d]pyrimidin-7-yl)((S)-3-hydroxypyrrolidin-1-yl)methanone]
5 | 100 to 1000 nM | 100 to 1000 nM | > 1000 nM | < 100 nM | Cc1nc2nc(N[C@@H](C)c3cncc(F)c3)nc(C(=O)NC[C@H](C)O)c2s1 [Example 5, 5-(((S)-1-(5-Fluoropyridin-3-yl)ethyl)amino)-N—((S)-2-hydroxypropyl)-2-methylthiazolo[4,5-d]pyrimidine-7-carboxamide]
6 | > 1000 nM | 100 to 1000 nM | 100 to 1000 nM | < 100 nM | Cc1nc2nc(N[C@@H](C)c3cccnc3)nc(C(=O)N3CCCC3)c2s1 [Example 6, (S)-(2-Methyl-5-((1-(pyridin-3-yl)ethyl)amino)thiazolo[4,5-d]pyrimidin-7-yl)(pyrrolidin-1-yl)methanone]
7 | > 1000 nM | > 1000 nM | 100 to 1000 nM | < 100 nM | Cc1nc2nc(N[C@@H](C)c3cncc(F)c3)nc(C(=O)N3CC[C@@H](O)C3)c2s1 [Example 7, (5-(((S)-1-(5-Fluoropyridin-3-yl)ethyl)amino)-2-methylthiazolo[4,5-d]pyrimidin-7-yl)((R)-3-hydroxypyrrolidin-1-yl)methanone]
8 | > 1000 nM | 100 to 1000 nM | 100 to 1000 nM | < 100 nM | Cc1nc2nc(N[C@@H](C)c3ccccn3)nc(C(=O)N3CCC3)c2s1 [Example 8, (S)-Azetidin-1-yl(2-methyl-5-((1-(pyridin-2-yl)ethyl)amino)thiazolo[4,5-d]pyrimidin-7-yl)methanone]
9 | – | – | 100 to 1000 nM | < 100 nM | Cc1nc2nc(N[C@@H](C)c3ccccn3)nc(C(=O)NC(C)C)c2s1 [Example 10, (S)—N-Isopropyl-2-methyl-5-((1-(pyridin-2-yl)ethyl)amino)thiazolo[4,5-d]pyrimidine-7-carboxamide]
10 | – | – | > 1000 nM | < 100 nM | Cc1nc2nc(N[C@@H](C)c3ccccn3)nc(C(=O)N3CC[C@@H](O)C3)c2s1 [Example 19, ((R)-3-Hydroxypyrrolidin-1-yl)(2-methyl-5-(((S)-1-(pyridin-2-yl)ethyl)amino)thiazolo[4,5-d]pyrimidin-7-yl)methanone]
11 | – | – | > 1000 nM | 100 to 1000 nM | C[C@H](Nc1nc(C(=O)N2CCCC2)c2sc(N)nc2n1)c1cccnc1 [Example 20, (S)-(2-Amino-5-((1-(pyridin-3-yl)ethyl)amino)thiazolo[4,5-d]pyrimidin-7-yl)(pyrrolidin-1-yl)methanone]
12 | – | – | > 1000 nM | 100 to 1000 nM | Cc1nc2nc(N[C@@H](C)c3cncc(F)c3)nc(C(=O)NCCC3CCN(C(=O)OC(C)(C)C)CC3)c2s1 [Example 22, tert-Butyl (S)-4-(2-(5-((1-(5-fluoropyridin-3-yl)ethyl)amino)-2-methylthiazolo[4,5-d]pyrimidine-7-carboxamido)ethyl)piperidine-1-carboxylate]
13 | – | – | 100 to 1000 nM | < 100 nM | Cc1nc2nc(N[C@@H](C)c3cncc(F)c3)nc(C(=O)NCc3cccnc3)c2s1 [Example 23, (S)-5-((1-(5-Fluoropyridin-3-yl)ethyl)amino)-2-methyl-N-(pyridin-3-ylmethyl)thiazolo[4,5-d]pyrimidine-7-carboxamide]
14 | – | – | > 1000 nM | < 100 nM | Cc1nc2nc(N[C@@H](C)c3cncc(F)c3)nc(C(=O)N3CC(C(=O)N(C)C)C3)c2s1 [Example 26, (S)-1-(5-((1-(5-Fluoropyridin-3-yl)ethyl)amino)-2-methylthiazolo[4,5-d]pyrimidine-7-carbonyl)-N,N-dimethylazetidine-3-carboxamide]
15 | – | – | 100 to 1000 nM | 100 to 1000 nM | Cc1nc2nc(N[C@@H](C)c3cccnc3)nc(C(=O)N[C@@H](C)c3cccnc3)c2s1 [Example 27, 2-Methyl-N—((S)-1-(pyridin-3-yl)ethyl)-5-(((S)-1-(pyridin-3-yl)ethyl)amino)thiazolo[4,5-d]pyrimidine-7-carboxamide]
16 | – | – | > 1000 nM | 100 to 1000 nM | Cc1nc2nc(N[C@@H](C)c3cncc(F)c3)nc(C(=O)N3CCN(C(=O)CC(C)(C)C)C3)c2s1 [Example 34, (S)-1-(3-(5-((1-(5-Fluoropyridin-3-yl)ethyl)amino)-2-methylthiazolo[4,5-d]pyrimidine-7-carbonyl)imidazolidin-1-yl)-3,3-dimethylbutan-1-one]
17 | – | – | 100 to 1000 nM | 100 to 1000 nM | Cc1nc2nc(N[C@@H](C)c3cncc(F)c3)nc(C(=O)N3CCN(C(=O)NC(C)(C)C)C3)c2s1 [Example 35, (S)—N-(tert-Butyl)-3-(5-((1-(5-fluoropyridin-3-yl)ethyl)amino)-2-methylthiazolo[4,5-d]pyrimidine-7-carbonyl)imidazolidine-1-carboxamide]
18 | – | – | 100 to 1000 nM | > 1000 nM | Cc1nc2nc(N[C@@H](C)c3cncc(F)c3)nc(C(=O)NCCNC(=O)NC(C)(C)C)c2s1 [Example 36, (S)—N-(2-(3-(tert-butyl)ureido)ethyl)-5-((1-(5-fluoropyridin-3-yl)ethyl)amino)-2-methylthiazolo[4,5-d]pyrimidine-7-carboxamide]
19 | – | – | > 1000 nM | 100 to 1000 nM | Cc1nc2nc(N[C@@H](C)c3cncc(F)c3)nc(C(=O)N3CC[C@@H](N)C3)c2s1 [Example 42, ((R)-3-Aminopyrrolidin-1-yl)(5-(((S)-1-(5-fluoropyridin-3-yl)ethyl)amino)-2-methylthiazolo[4,5-d]pyrimidin-7-yl)methanone]
20 | – | – | > 1000 nM | 100 to 1000 nM | Cc1nc2nc(N[C@@H](C)c3cncc(F)c3)nc(C(=O)N3CC[C@H](N)C3)c2s1 [Example 43, ((S)-3-Aminopyrrolidin-1-yl)(5-(((S)-1-(5-fluoropyridin-3-yl)ethyl)amino)-2-methylthiazolo[4,5-d]pyrimidin-7-yl)methanone]
21 | – | – | > 1000 nM | 100 to 1000 nM | CC(=O)N(C)C1CN(C(=O)c2nc(N[C@@H](C)c3cncc(F)c3)nc3nc(C)sc23)C1 [Example 44, (S)—N-(1-(5-((1-(5-Fluoropyridin-3-yl)ethyl)amino)-2-methylthiazolo[4,5-d]pyrimidine-7-carbonyl)azetidin-3-yl)-N-methylacetamide]
22 | – | – | 100 to 1000 nM | 100 to 1000 nM | Cc1nc2nc(N[C@@H](C)c3cncc(F)c3)nc(C(=O)N3CC(NC(=O)C4CCOC4)C3)c2s1 (stereo partly drawn) [Example 45, N-(1-(5-(((S)-1-(5-Fluoropyridin-3-yl)ethyl)amino)-2-methylthiazolo[4,5-d]pyrimidine-7-carbonyl)azetidin-3-yl)tetrahydrofuran-3-carboxamide]
23 | – | – | > 1000 nM | 100 to 1000 nM | Cc1nc2nc(N[C@@H](C)c3cncc(F)c3)nc(C(=O)NCCN3CCOCC3)c2s1 [Example 46, (S)-5-((1-(5-Fluoropyridin-3-yl)ethyl)amino)-2-methyl-N-(2-morpholinoethyl)thiazolo[4,5-d]pyrimidine-7-carboxamide]
